Results from publication PMC6838674, “Apelin-36-[L28A] and Apelin-36-[L28C(30kDa-PEG)] peptides that improve diet induced obesity are G protein biased ligands at the apelin receptor” (Peptides, 2019).
Ends that are not written are not given here.

Key:
[1] = system: apelin receptor; set-up: method as in earlier work; details: ref 20 (Galon-Tilleman et al.), cited from earlier work
[2] = molecular target: T1, apelin receptor (Homo sapiens, UniProt P35414); assay: β-Arrestin recruitment assay (DiscoverX AGTRL1); type: cell-based; set-up: host or cells: CHO-K1; details: for β-Arrestin Assay Fold change: fold change in potency relative to apelin-36; for β-Arrestin Assay RE (relative effectiveness) / β-Arrestin Assay ΔlogR: operational model, compared to apelin-36; for β-Arrestin Assay ΔlogR / β-Arrestin Assay pD2±SEM / EC50: n = 3-4 independent experiments; for β-Arrestin Assay pD2±SEM / EC50: CHO-K1 cells expressing human apelin receptor, 90 min, 37 °C, mean ± SEM, SEM; for EC50: read-out: β-Arrestin Assay pD2±SEM (converted)
T1 sequence (P35414 1-380): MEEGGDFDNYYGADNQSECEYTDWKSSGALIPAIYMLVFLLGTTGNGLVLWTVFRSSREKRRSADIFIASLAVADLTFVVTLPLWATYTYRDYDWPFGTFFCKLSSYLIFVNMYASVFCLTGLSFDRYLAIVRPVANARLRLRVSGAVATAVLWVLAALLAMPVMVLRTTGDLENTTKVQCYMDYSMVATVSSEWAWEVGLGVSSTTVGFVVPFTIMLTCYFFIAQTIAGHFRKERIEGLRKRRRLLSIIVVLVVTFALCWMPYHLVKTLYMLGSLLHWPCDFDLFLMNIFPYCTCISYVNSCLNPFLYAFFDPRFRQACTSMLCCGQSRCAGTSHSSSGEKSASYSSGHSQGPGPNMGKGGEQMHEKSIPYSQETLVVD
Procedure: Experiments were performed using a β-arrestin GPCR Assay (AGTRL1) (DiscoverX, Lot No.: 16L0902) according to methods previously described. CHO-K1 cells artificially expressing the human apelin receptor were seeded in Cell Plating media into 96-well plates and incubated for 48 h at 37 °C in 5% CO2. […] Negative controls were defined with equal volumes of drug solvent (water). The resulting chemiluminescent signal was measured using a LumiLITE™ Microplate Reader (DiscoverX, Fremont, CA). Responses, measured in relative light units, were fitted with a 4-parameter logistic equation in GraphPad Prism 7 (La Jolla, CA, USA) and values of pD2 and maximum response (EMax) were calculated for each compound.
(§1) Data were expressed as mean ± SEM. Experiments were performed in triplicates or duplicates and n-values were expressed as number of independent experiments. Potencies of analogues in cell-based assays were compared to native apelin-36 using a one-way ANOVA with Dunnett’s posthoc test in GraphPad Prism 7. A P value < 0.05 was considered statistically significant. Binding affinities in both species were compared using Student’s t-test in Graphpad Prism as described above. Bias calculations were performed as previously described using the operational model for bias, to obtain values for relative effectiveness of the apelin-36 synthetic analogues compared to apelin-36 within each cell-based assay. Bias factors were calculated to compare the relative activities of the analogues between the different pathways – β-arrestin (G protein independent) and cAMP (G protein dependent).

[3] = molecular target: T1, apelin receptor; assay: Inhibition of forskolin-induced cAMP accumulation assay (DiscoverX); type: cell-based; set-up: host or cells: CHO-K1; details: for cAMP Assay Fold change: fold change in potency relative to apelin-36; for cAMP Assay RE (relative effectiveness) / cAMP Assay ΔlogR: operational model, compared to apelin-36
Procedure: Cell-based cAMP assay were performed as previously described. Briefly, Chinese Hamster Ovary cells (CHO-K1) cells artificially expressing the human apelin receptor were seeded in Cell Plating media into 96-well plates and incubated for 24 h at 37 °C in 5% CO2. […] Cells were subsequently incubated with cAMP Detection Reagent comprising cAMP Lysis Buffer, Substrate Reagent 1, Substrate Reagent 2 and cAMP Solution D for 1 h at room temperature followed by 3 h incubation with cAMP Reagent A at room temperature and chemiluminescence reading (LumiLITE™ Microplate Reader, DiscoverX). Responses were fitted to a 4-parameter logistic equation in GraphPad Prism 7 (La Jolla, CA, USA) and values of potency, pD2 (-log10 EC50, where EC50 is the concentration producing half maximal response) determined. Data were expressed as percentage inhibition of forskolin-stimulated cAMP production.
as §1

[4] = molecular target: T1, apelin receptor; assay: Bias analysis, cAMP vs β-arrestin (operational model for bias); type: cell-based; set-up: host or cells: CHO-K1; details: for cAMP vs β-arrestin Assay Bias factor: G protein (cAMP) over β-arrestin; for cAMP vs β-arrestin Assay Bias factor / cAMP vs β-arrestin Assay ΔΔlogR ± SEM: reference ligand apelin-36; for cAMP vs β-arrestin Assay ΔΔlogR ± SEM: difference between ΔlogR in cAMP and β-arrestin pathways
Procedure: as §1, with “A P value < 0.05 was considered statistically significant.” left out, “Bias calculations were performed as previously described using the operational model for bias, to obtain values for relative effectiveness of the apelin-36 synthetic analogues compared to apelin-36 within each cell-based assay.” left out

[5] = molecular target: T1, apelin receptor; assay: Radioligand competition binding, human left ventricle homogenate; set-up: experiments using native rat and human receptor; from tissue; host or cells: human left ventricle from explanted hearts of dilated cardiomyopathy patients; details: [125I]apelin-13 0.1 nM, 90 min, competitor 50 pM-100 μM, mean ± SEM, n = 3 replicates per concentration; for Ki: human heart homogenate 1.5 mg/ml
Text: Samples of human left ventricle were obtained with informed consent and ethical approval (05/Q104/142) via the Papworth Hospital Research Tissue Bank (08/H0304/56) from the explanted hearts of five dilated cardiomyopathy patients (4 males and 1 female, aged 38–55 years) undergoing transplantation. Studies conformed to the principles outlined in the declaration of Helsinki. All animal research was regulated under the Animals (Scientific Procedures) Act 1986 Amendment Regulations 2012 following ethical review by the University of Cambridge Animal Welfare and Ethical Review Body (AWERB). Adult female and male Sprague Dawley rats (n = 14; aged 7–10 weeks) were sacrificed using overdose of CO2 and cervical dislocation before heart tissue was removed and frozen on dry ice. Hearts were pooled and 2 g tissue transferred into a centrifuge tube (50 ml) containing 20 ml homogenisation buffer (50 mM Tris, 5 mM MgCl2, 5 mM EDTA, 1 mM EGTA at pH 7.4 with protease inhibitor cocktail) on ice. The tissue was homogenised on ice using a polytron probe with 2–3 × 20 s bursts and centrifuged at 3000 rpm for 2 min at 4 °C. The supernatant was further centrifuged at 18,500 rpm for 30 min at 4 °C. The resulting pellet was resuspended in 5 ml homogenisation buffer containing protease inhibitor cocktail and centrifuged at 18,500 rpm for 30 min at 4 °C twice. Final pellets were then resuspended in 10 ml HEPES buffer (50 mM HEPES, pH 7.4) and protein concentration determined. Samples were stored at −70 °C until required.
Competition binding experiments were performed using pooled human homogenised left ventricle (HLV, 1.5 mg/ml) and pooled rat heart homogenates (1.5 mg/ml) as previously described. […] (50 pM-100 μM). […] The samples were then re-centrifuged to collect protein pellets before bound radioactivity in these pellets were counted using Packard Cobra II Auto Gamma Counter (Packard). Data were analysed with Graphpad Prism 7 (Graphpad Software, Inc. La Jolla, CA), using the One-site Fit Ki equation.

[6] = molecular target: T2, apelin receptor (Rattus norvegicus, UniProt Q9JHG3); assay: Radioligand competition binding, rat heart homogenate; details: [125I]apelin-13 0.1 nM, 90 min, competitor 50 pM-100 μM, mean ± SEM, n = 3 replicates per concentration
T2 construct: experiments using native rat and human receptor; from tissue; host or cells: pooled hearts of Sprague Dawley rats
T2 sequence (Q9JHG3 1-377): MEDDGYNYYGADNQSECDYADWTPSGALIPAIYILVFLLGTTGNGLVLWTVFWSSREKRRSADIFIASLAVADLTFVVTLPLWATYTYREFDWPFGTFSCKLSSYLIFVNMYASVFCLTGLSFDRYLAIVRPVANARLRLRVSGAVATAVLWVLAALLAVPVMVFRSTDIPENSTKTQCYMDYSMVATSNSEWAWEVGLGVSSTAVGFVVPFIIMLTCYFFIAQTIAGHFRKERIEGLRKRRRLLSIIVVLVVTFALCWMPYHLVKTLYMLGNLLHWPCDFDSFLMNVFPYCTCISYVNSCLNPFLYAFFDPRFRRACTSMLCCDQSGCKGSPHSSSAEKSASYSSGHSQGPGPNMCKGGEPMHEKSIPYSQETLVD
Text: Samples of human left ventricle were obtained with informed consent and ethical approval (05/Q104/142) via the Papworth Hospital Research Tissue Bank (08/H0304/56) from the explanted hearts of five dilated cardiomyopathy patients (4 males and 1 female, aged 38–55 years) undergoing transplantation. Studies conformed to the principles outlined in the declaration of Helsinki. All animal research was regulated under the Animals (Scientific Procedures) Act 1986 Amendment Regulations 2012 following ethical review by the University of Cambridge Animal Welfare and Ethical Review Body (AWERB). Adult female and male Sprague Dawley rats (n = 14; aged 7–10 weeks) were sacrificed using overdose of CO2 and cervical dislocation before heart tissue was removed and frozen on dry ice. […] Final pellets were then resuspended in 10 ml HEPES buffer (50 mM HEPES, pH 7.4) and protein concentration determined. […]
Competition binding experiments were performed using pooled human homogenised left ventricle (HLV, 1.5 mg/ml) and pooled rat heart homogenates (1.5 mg/ml) as previously described. […] The samples were then re-centrifuged to collect protein pellets before bound radioactivity in these pellets were counted using Packard Cobra II Auto Gamma Counter (Packard). Data were analysed with Graphpad Prism 7 (Graphpad Software, Inc. La Jolla, CA), using the One-site Fit Ki equation.

[7] = n = 3-4 independent experiments
[8] = CHO-K1 cells expressing human apelin receptor, 15 μM forskolin, 30 min, 37 °C, n = 3-4 independent experiments, read-out: cAMP Assay EC50
[9] = CHO-K1 cells expressing human apelin receptor, 15 μM forskolin, 30 min, 37 °C, mean ± SEM, n = 3-4 independent experiments, SEM, read-out: cAMP Assay pD2±SEM (converted)

Substance: Apelin-13 [reference compound]
- agonist character at apelin receptor (comment) ([1]; comment in Table 1): QRPRLSHKGPMPF (full agonist)

Substance: Apelin-36-[L28C(30kDa-PEG)]: apelin-36 with leucine-28 to cysteine substitution, cysteine-28 PEGylated (30kDa)
- fold less potent / less active at apelin receptor compared to apelin-36 ([1]; β-arrestin activation): 10,000 fold
- β-Arrestin Assay Fold change ([2]; listed as Apelin-36-[L28C (30kDa-PEG)]): 1324 fold
- β-Arrestin Assay Fold change ([2]; listed as apelin-36-[L28C(30kDa-PEG)]): 1400 fold
- β-Arrestin Assay RE (relative effectiveness) [2]: 0.0002
- β-Arrestin Assay ΔlogR [2]: −3.71 ± 0.12
- cAMP Assay Fold change [3]: 104 fold
- cAMP Assay RE (relative effectiveness) [3]: 0.01
- cAMP Assay ΔlogR [3, 7]: −1.95 ± 0.31
- fold more potent in the cAMP assay compared to the β-arrestin assay ([4]; CHO-K1 cells expressing human apelin receptor): ~10 fold
- cAMP vs β-arrestin Assay Bias factor [4]: 58
- cAMP vs β-arrestin Assay ΔΔlogR ± SEM [4]: 1.76 ± 0.33

Substance: Apelin-36-[L28C(30kDa-PEG)]: apelin-36 with leucine-28 to cysteine substitution, cysteine-28 PEGylated (30kDa) (LVQPRGSRNGPGPWQGGRRKFRRQRPRCSHKGPMPF)
- pKi ([5]; human heart homogenate […]): 8.00 ± 0.05
- pKi [6]: 8.06 ± 0.37
- β-Arrestin Assay pD2±SEM [2]: 6.05 ± 0.06
- EC50 [3, 8]: 95.3 nM

Substance: LVQPRGSRNGPGAWQGGRRKFRRQRPRASHKGPMPF [Apelin-36-[A13 A28]]
- EC50 [2]: 151 nM
- EC50 [3, 9]: 7.59 nM

Substance: LVQPRGSRNGPGPWQGGRRKFRRQRPRASHKGPMPF [Apelin-36-[L28A]]
- Ki [5]: 3.02 nM
- EC50 [2]: 37.2 nM
- EC50 [3, 8]: 13.1 nM

Substance: LVQPRGSRNGPGPWQGGRRKFRRQRPRLSHKGPMPA [Apelin-36-[F36A]]
- EC50 [2]: 8.13 nM
- EC50 [3, 9]: 1.26 nM

Substance: LVQPRGSRNGPGPWQGGRRKFRRQRPRLSHKGPMPF [Apelin-36]
- Ki [5]: 0.0525 nM
- Ki [6]: 0.0589 nM
- EC50 [2]: 0.676 nM
- EC50 [3, 9]: 0.912 nM

Substance: [40kDa-PEG]-Apelin-36: N-terminal PEGylated (40kDa) apelin-36
- β-Arrestin Assay Fold change [2]: 3 fold
- β-Arrestin Assay RE (relative effectiveness) [2]: 0.26
- β-Arrestin Assay ΔlogR [2]: −0.59 ± 0.16
- cAMP Assay Fold change [3]: 2 fold
- cAMP Assay RE (relative effectiveness) [3]: 1.20
- cAMP Assay ΔlogR [3, 7]: 0.08 ± 0.40
- cAMP vs β-arrestin Assay Bias factor [4]: 5
- cAMP vs β-arrestin Assay ΔΔlogR ± SEM [4]: 0.67 ± 0.43

Substance: [40kDa-PEG]-Apelin-36: N-terminal PEGylated (40kDa) apelin-36 (LVQPRGSRNGPGPWQGGRRKFRRQRPRLSHKGPMPF)
- β-Arrestin Assay pD2±SEM [2]: 8.71 ± 0.15
- cAMP Assay pD2±SEM ([3]; CHO-K1 cells expressing human apelin receptor, 15 μM forskolin, 30 min, 37 °C, mean ± SEM, n = 3-4 independent experiments, SEM): 8.69 ± 0.22
